Measurements as given in patent US4442218A, “Method of measuring degree of partitioning” (Corning Glass Works, priority 1981, dated 1984).
pKd: −log10 of the molar value. Where two headings read alike, the source gives them in different places.

Assays:
[1] = molecular target: thyroxine antibodies immobilized within the pores of stainless steel cylindrical monoliths; test: Scatchard plot evaluation of binding constant, stainless steel cylindrical monoliths; set-up: species or system rabbit; details: ambient temperature, overnight, shaking, cylindrical monolith, read-out: binding constant K (slope of Scatchard plot) (converted)
Description: The treated monoliths were combined with 3.0 ml of a stock solution (prepared as described below) of an immunoglobulin-enriched fraction of an antithyroxine antiserum per 100 g of monoliths dissolved in sufficient 0.1 M phosphate buffer solution (PBS) at pH 7.0 to insure complete submersion of the monoliths (the 3.0 ml of stock solution was equivalent to 0.3 mg of protein per monolith). A water aspirator vacuum was applied to the resulting mixture for a time sufficient to insure complete penetration of the liquid phase into the pores of the monoliths. The mixture then was maintained at 4° on a reciprocating shake table (Eberbach Corporation, Ann Arbor, Mich.) for 48 hours. […] If the bound and free antigen can be separated and the quantity bound measured, then the value of K can be determined by constructing a Scatchard plot; see, e.g., E. D. Day, "Advanced Immunochemistry", Williams & Wilkens Co., Baltimore, Md., 1972, pp. 118ff. Such a procedure is particularly suited to solid-phase immunoassay systems since the bound antigen is readily separated from the free or unbound antigen. The value of K for the monolith-thyroxine antibody complex was determined as follows. […] (3) Each tube was counted for one minute to obtain total counts. […]

[2] = molecular target: thyroxine antibodies immobilized within the pores of stainless steel disc-shaped monoliths; test: Scatchard plot evaluation of binding constant, stainless steel disc-shaped monoliths; set-up: species or system rabbit; details: total liquid volume 0.5 ml; disc-shaped monolith, 0.5 mg protein per monolith; read-out: binding constant K (Scatchard plot)
Description: The procedure of Example 1 was repeated, except that the cylindrical monoliths were replaced with 316 stainless steel discs 8 mm in diameter and 1.6 mm in thickness and the amount of protein per monolith was increased to 0.5 mg. Mean pore diameters were about 40μ and the total surface area of each disc was about 60 cm^2. In a random sampling of 10 discs, the average weight per disc was 0.330 g with a coefficient of variation of 0.3 percent. The discs were obtained as Stock No. S-2298 from Sintered Specialties, Janesville, Wisc. The Scatchard plot data were obtained using a total liquid volume of 0.5 ml per tube and serial dilutions of I^125 -labeled thyroxine from about 500,000 cpm to about 25,000 cpm.

Q: `N[C@@H](Cc1cc(I)c(Oc2cc(I)c(O)c(I)c2)c(I)c1)C(=O)O` [thyroxine] was tested. Which Kd ([1]; total reaction volume 0.5 ml) did it give?
A: 0.175 nM

Q: What about the Kd ([1]; total reaction volume 1.0 ml) of the same compound?
A: 0.167 nM

Q: What about the pKd [2] of the same compound?
A: 9.00
